From patent US10813356B2, “Herbicidal composition comprising cinmethylin and dimethenamid” (BASF Agro B.V., priority 2015, dated 2020)

What was measured:
Details in all cases: 20 DAT
HELAN = test: Greenhouse preemergence herbicidal activity; format: in vivo, Helianthus annuus
Method: (§1) The test plants have been seeded, separately for each species, in plastic containers in sandy loamy soil containing 5% of organic matter.
(§2) The containers were irrigated gently to promote germination and growth and subsequently covered with transparent plastic hoods until the plants had rooted.
(§3) The plants have been cultivated due to their individual requirements at 10-25° C. and 20-35° C.
(§4) The plants were irrigated due to their necessity.
(§5) The racemic mixture (±)-2-exo-(2-Methylbenzyloxy)-1-methyl-4-isopropyl-7-oxabicyclo[2.2.1]heptane was used as herbicide A and formulated as emulsifiable concentrates with an active ingredient concentration of 50 g/l, 100 g/l or 750 g/l respectively.
(§6) Dimethenamid-P was used as emulsifiable concentrate (EC) formulation having an active ingredient concentration of 720 g/l.
(§7) In the following experiments, the herbicidal activity for the individual herbicidal compositions (solo and mixture applications) was assessed 20 days after treatment (DAT). […]
(§8) The value E corresponds to the effect (plant damage or injury) which is to be expected if the activity of the individual compounds is additive. If the observed effect is higher than the value E calculated according to the Colby equation, a synergistic effect is present.

ABUTH = test: Greenhouse preemergence herbicidal activity; format: in vivo, Abutilon theophrasti
Method: as §1, §2, §3, §4, §5, §6
(§9) In the following experiments, the herbicidal activity for the individual herbicidal compositions (solo and mixture applications) was assessed 20 days after treatment (DAT).
(§10) The evaluation for the damage on undesired weeds caused by the chemical compositions was carried out using a scale from 0 to 100%, compared to the untreated control plants. Here, 0 means no damage and 100 means complete destruction of the plants.
(§11) E=X+Y−(X·Y/100) where X=effect in percent using herbicide A at an application rate a; • Y=effect in percent using herbicide B at application rate b; • E=expected effect (in %) of herbicide A+herbicide B at application rates a+b.
as §8

BRSNW = test: Greenhouse postemergence herbicidal activity; format: in vivo, Brassica napus
Method: as §1
(§12) For the post emergence treatment, the plants were first grown to the 2 leaf station (GS 12). Here, the herbicidal compositions were suspended or emulsified in water as distribution medium and sprayed using finely distributing nozzles.
as §3, §4, §5, §6, §7, §8

POLCO = test: Greenhouse preemergence herbicidal activity; format: in vivo, Polygonum convolvulus
Method: as §1, §2, §3, §4, §5, §6, §9, §10, §11, §8

AMBEL = test: Greenhouse preemergence herbicidal activity; format: in vivo, Ambrosia elatior
Method: as §1, §2, §3, §4, §5, §6, §7, §8

SSYOF = test: Greenhouse preemergence herbicidal activity; format: in vivo, Sisymbrium officinale
Method: as §1, §2, §3, §4, §5, §6, §9, §10, §11, §8

SORHA = test: Greenhouse preemergence herbicidal activity; format: in vivo, Sorghum halepense
Method: as §1, §2, §3, §4, §5, §6, §9, §10, §11, §8

AVEFA = test: Greenhouse preemergence herbicidal activity; format: in vivo, Avena fatua
Method: as §1, §2, §3, §4, §5, §6, §9, §10, §11, §8

GALAP = test: Greenhouse preemergence herbicidal activity; format: in vivo, Galium aparine
Method: as §1, §2, §3, §4, §5, §6, §9, §10, §11, §8

ANTAR [1] = test: Greenhouse postemergence herbicidal activity; format: in vivo, Anthemis arvensis
Method: as §1, §12, §3, §4, §5, §6, §9, §10, §11, §8

ALOMY = test: Greenhouse preemergence herbicidal activity; format: in vivo, Alopecurus myosuroides
Method: as §1, §2, §3, §4, §5, §6, §7, §8

THLAR = test: Greenhouse preemergence herbicidal activity; format: in vivo, Thlaspi arvense
Method: as §1, §2, §3, §4, §5, §6, §9, §10, §11, §8

ANTAR [2] = test: Greenhouse preemergence herbicidal activity; format: in vivo, Anthemis arvensis
Method: as §1, §2, §3, §4, §5, §6, §9, §10, §11, §8

[3] = solo Dimethenamid-P 500 g ai/ha
[4] = solo Dimethenamid-P 125 g ai/ha
[5] = solo Dimethenamid-P 250 g ai/ha
[6] = solo Dimethenamid-P 37.5 g ai/ha
[7] = solo Dimethenamid-P 62.5 g ai/ha
[8] = solo Dimethenamid-P 150 g ai/ha
[9] = solo Dimethenamid-P 300 g ai/ha

## COC[C@H](C)N(C(=O)CCl)c1c(C)csc1C [Dimethenamid-P, (S)-2-chloro-N-(2,4-dimethyl-3-thienyl)-N-(2-methoxy-1-methylethyl)acetamide]
HELAN; [3]
  herbicidal activity: 30%
ABUTH; [4]
  herbicidal activity: 10%
ABUTH; [5]
  herbicidal activity: 25%
BRSNW; solo Dimethenamid-P 75 g ai/ha
  herbicidal activity: 20%
POLCO; [6]
  herbicidal activity: 0%
POLCO; [7]
  herbicidal activity: 0%
POLCO; solo Dimethenamid-P 75 g ai/ha
  herbicidal activity: 0%
POLCO; [4]
  herbicidal activity: 0%
POLCO; [5]
  herbicidal activity: 30%
POLCO; [3]
  herbicidal activity: 60%
AMBEL; [4]
  herbicidal activity: 35%
SSYOF; [7]
  herbicidal activity: 0%
SSYOF; [4]
  herbicidal activity: 70%
SSYOF; [5]
  herbicidal activity: 98%
SORHA; [6]
  herbicidal activity: 30%
SORHA; solo Dimethenamid-P 75 g ai/ha
  herbicidal activity: 70%
AVEFA; [6]
  herbicidal activity: 0%
AVEFA; [7]
  herbicidal activity: 0%
AVEFA; solo Dimethenamid-P 75 g ai/ha
  herbicidal activity: 0%
AVEFA; [4]
  herbicidal activity: 25%
GALAP; [7]
  herbicidal activity: 20%
GALAP; [8]
  herbicidal activity: 70%
GALAP; [5]
  herbicidal activity: 75%
GALAP; [9]
  herbicidal activity: 75%
GALAP; [3]
  herbicidal activity: 80%
ANTAR [1]; [6]
  herbicidal activity: 0%
ANTAR [1]; solo Dimethenamid-P 75 g ai/ha
  herbicidal activity: 0%
ANTAR [1]; [8]
  herbicidal activity: 35%
ANTAR [1]; [9]
  herbicidal activity: 45%
ALOMY; [7]
  herbicidal activity: 25%
THLAR; [4]
  herbicidal activity: 40%
THLAR; [5]
  herbicidal activity: 70%
THLAR; [3]
  herbicidal activity: 90%
ANTAR [2]; [6]
  herbicidal activity: 20%
ANTAR [2]; [7]
  herbicidal activity: 75%
ANTAR [2]; solo Dimethenamid-P 75 g ai/ha
  herbicidal activity: 50%
ANTAR [2]; [4]
  herbicidal activity: 95%
ANTAR [2]; [8]
  herbicidal activity: 85%
ANTAR [2]; [5]
  herbicidal activity: 98%
ANTAR [2]; [9]
  herbicidal activity: 90%

## (±)-2-exo-(2-Methylbenzyloxy)-1-methyl-4-isopropyl-7-oxabicyclo[2.2.1]heptane [herbicide A]
HELAN; solo herbicide A 125 g ai/ha
  herbicidal activity: 0%
ABUTH; solo herbicide A 62.5 g ai/ha
  herbicidal activity: 55%
ABUTH; solo herbicide A 125 g ai/ha
  herbicidal activity: 65%
BRSNW; solo herbicide A 125 g ai/ha
  herbicidal activity: 0%
POLCO; solo herbicide A 31.25 g ai/ha
  herbicidal activity: 0%
POLCO; solo herbicide A 62.5 g ai/ha
  herbicidal activity: 0%
POLCO; solo herbicide A 125 g ai/ha
  herbicidal activity: 0%
POLCO; solo herbicide A 250 g ai/ha
  herbicidal activity: 0%
AMBEL; solo herbicide A 62.5 g ai/ha
  herbicidal activity: 0%
SSYOF; solo herbicide A 31.25 g ai/ha
  herbicidal activity: 0%
SSYOF; solo herbicide A 62.5 g ai/ha
  herbicidal activity: 0%
SSYOF; solo herbicide A 125 g ai/ha
  herbicidal activity: 50%
SORHA; solo herbicide A 62.5 g ai/ha
  herbicidal activity: 80%
SORHA; solo herbicide A 125 g ai/ha
  herbicidal activity: 90%
AVEFA; solo herbicide A 31.25 g ai/ha
  herbicidal activity: 0%
AVEFA; solo herbicide A 125 g ai/ha
  herbicidal activity: 50%
GALAP; solo herbicide A 31.25 g ai/ha
  herbicidal activity: 0%
GALAP; solo herbicide A 125 g ai/ha
  herbicidal activity: 20%
GALAP; solo herbicide A 250 g ai/ha
  herbicidal activity: 65%
GALAP; solo herbicide A 500 g ai/ha
  herbicidal activity: 80%
ANTAR [1]; solo herbicide A 62.5 g ai/ha
  herbicidal activity: 0%
ANTAR [1]; solo herbicide A 125 g ai/ha
  herbicidal activity: 0%
ANTAR [1]; solo herbicide A 250 g ai/ha
  herbicidal activity: 40%
ANTAR [1]; solo herbicide A 500 g ai/ha
  herbicidal activity: 65%
ALOMY; solo herbicide A 31.25 g ai/ha
  herbicidal activity: 85%
THLAR; solo herbicide A 62.5 g ai/ha
  herbicidal activity: 65%
THLAR; solo herbicide A 125 g ai/ha
  herbicidal activity: 75%
THLAR; solo herbicide A 500 g ai/ha
  herbicidal activity: 90%
ANTAR [2]; solo herbicide A 31.25 g ai/ha
  herbicidal activity: 0%
ANTAR [2]; solo herbicide A 250 g ai/ha
  herbicidal activity: 40%
ANTAR [2]; solo herbicide A 500 g ai/ha
  herbicidal activity: 65%
